# Assays:
# [1] = tested on: mecA gene; rRNA (pan-bacterial probe); assay: Hybridization Protection Assay (HPA), AE-labeled probes, thermally lysed specimens (Examples 1-2); type: binding, S. aureus
# Protocol: The specimens were lysed by suspending approximately 5×10^8 cells in a lysis buffer (0.1% lithium lauryl sulfate, 1 mM EDTA, 20 mM lithium succinate, pH 5.5) and then incubating in a heat block set at 110° C. for 20 minutes. Thermal lysis of a variety of other specimens was effected under a range of temperature (heat block set at about 95° C. to 110° C.) and time (about 10 to 25 minutes) conditions. The lysed samples were tested for the presence of target sequences complementary to the probes using a Hybridization Protection Assay (HPA) as described by Arnold et al., in Clin. Chem. 35:1588(1989) and U.S. Pat. No. 6,004,745. 50 μl of the heat-treated suspension was incubated with an equal volume of AE-labeled probe in 2× hybridization buffer (1.2 M LiCl, 2% lithium lauryl sulfate, 20 mM EDTA, 20 mM EGTA, 100 mM lithium succinate, pH 5.5) at 60° C. for 30 minutes. The pH of succinate solutions may range from about 4.5 to about 5.5, although it is desirable to use a pH of 4.8 for succinate buffering. 300 μl of a selection reagent (0.6 M borate buffered solution, pH 8.5; note, pH may vary from 8.0 to 9.0) was added, the mixture was heated at 60° C. for 10 minutes to effect differential hydrolysis, and the samples were read in a GEN-PROBE® LEADER® luminometer using sequential 300 μl injections of 0.1% H2O2 and 1 N NaOH solutions (see Arnold et al, supra; GEN-PROBE® Detection Reagent Kit, Cat. No. 1791 may be used).
# Procedures similar to those described in Example 1 were conducted using a large number of bacterial samples, except that parallel hybridization reactions employed a pan-bacterial probe which targeted rRNA (Probe Reagent 1, GEN-PROBE® MTC-NI Kit, catalog no. 4573). […] The pan-bacterial probe reagent served as a positive control for lysis of all of the specimens. In this procedure each sample was tested against a panel of the three probes contained in separate hybridization reactions. Aliquots of the samples tested using the pan-bacterial probe reagent were diluted 1:3000 prior to performing luminometry so that results fell within the linear range of the detector. The signals indicated lysis and detection of ribosomal nucleic acids in each of the samples. These values depended on the number of bacterial cells in the specimen, as well as on the extent of cell lysis and the release or accessibility of ribosomal nucleic acids from the cells to be detected by the pan-bacterial probe.
# [2] = tested on: mecA gene; ribosomal nucleic acids; assay: HPA, base treatment with and without thermal lysis (Example 4); type: binding, S. aureus
# Protocol: The effect of base treatment with and without the heat treatment in lysis buffer was evaluated using a S. aureus specimen (GP1217, ATCC #33591). In this procedure the sample was treated with 0.8 N LiOH and thermal lysis was conducted by heat treatment for 15 minutes. Other conditions were as described above. Probe 1 labeled with acridinium ester was used in this procedure.
sequence,measurement,setting,value
"GGTATGTGGAAGTTAGATTGGGATCATAGCG (AE label, linker between 13 and 14, chemistry not fully specified; listed as Staphylococcus aureus) [Probe 1]",AE-probe Average RLU,[1]; No Specimen,431 RLU
same,AE-probe Average RLU,"[1]; S. aureus specimen #99, mecA PCR Pos",2664 RLU
same,AE-probe Average RLU,"[1]; S. aureus specimen #100, mecA PCR Neg",590 RLU
same,AE-Probe Signal (RLU),"[1]; Table 2, Negative Control",1817 RLU
same,AE-Probe Signal (RLU),"[1]; Table 2, specimen 10, mecA PCR Neg, pan-bacterial diluted 1:3000 prior to luminometry",2918 RLU
same,AE-Probe Signal (RLU),"[1]; Table 2, specimen 99, mecA PCR Pos, pan-bacterial diluted 1:3000 prior to luminometry",5822 RLU
same,AE-Probe Signal (RLU),"[1]; Table 2, specimen 100, mecA PCR Neg, pan-bacterial diluted 1:3000 prior to luminometry",815 RLU
same,AE-Probe Signal (RLU),"[1]; Table 2, specimen 101, mecA PCR Neg, pan-bacterial diluted 1:3000 prior to luminometry",2768 RLU
same,AE-Probe Signal (RLU),"[1]; Table 2, specimen 102, mecA PCR Pos, pan-bacterial diluted 1:3000 prior to luminometry",5623 RLU
same,AE-Probe Signal (RLU),"[1]; Table 2, specimen 103, mecA PCR Neg, pan-bacterial diluted 1:3000 prior to luminometry",1097 RLU
same,AE-Probe Signal (RLU),"[1]; Table 2, specimen 104, mecA PCR Neg, pan-bacterial diluted 1:3000 prior to luminometry",959 RLU
same,AE-Probe Signal (RLU),"[1]; Table 2, specimen 105, mecA PCR Neg, pan-bacterial diluted 1:3000 prior to luminometry",1086 RLU
same,AE-Probe Signal (RLU),"[1]; Table 2, specimen 106, mecA PCR Neg, pan-bacterial diluted 1:3000 prior to luminometry",1327 RLU
same,AE-Probe Signal (RLU),"[1]; Table 2, specimen 139, mecA PCR Pos, pan-bacterial diluted 1:3000 prior to luminometry",5755 RLU
same,AE-Probe Signal (RLU),"[1]; Table 2, specimen 140, mecA PCR Pos, pan-bacterial diluted 1:3000 prior to luminometry",3143 RLU
same,AE-Probe Signal (RLU),"[1]; Table 2, specimen 142, mecA PCR Pos, pan-bacterial diluted 1:3000 prior to luminometry",6845 RLU
same,AE-Probe Signal (RLU),"[1]; Table 2, specimen 145, mecA PCR Neg, pan-bacterial diluted 1:3000 prior to luminometry",997 RLU
same,AE-Probe Signal (RLU),"[1]; Table 2, specimen 148, mecA PCR Pos, pan-bacterial diluted 1:3000 prior to luminometry",10483 RLU
same,AE-Probe Signal (RLU),"[1]; Table 2, specimen 155, mecA PCR Neg, pan-bacterial diluted 1:3000 prior to luminometry",730 RLU
same,AE-Probe Signal (RLU),"[1]; Table 2, specimen 164, mecA PCR Neg, pan-bacterial diluted 1:3000 prior to luminometry",1546 RLU
same,AE-Probe Signal (RLU),"[1]; Table 2, specimen 178, mecA PCR Pos, pan-bacterial diluted 1:3000 prior to luminometry",7772 RLU
same,AE-Probe Signal (RLU),"[1]; Table 2, specimen 188, mecA PCR Pos, pan-bacterial diluted 1:3000 prior to luminometry",11856 RLU
same,AE-Probe Signal (RLU),"[1]; Table 2, specimen 270, mecA PCR Pos, pan-bacterial diluted 1:3000 prior to luminometry",9256 RLU
same,AE-Probe Signal (RLU),"[1]; Table 2, specimen 296, mecA PCR Pos, Lab Pos control, pan-bacterial diluted 1:3000 prior to luminometry",5567 RLU
same,RLU,"[2]; GP1217, Base treatment 30 minutes at 60° C.",16016 RLU
same,RLU,"[2]; GP1217, Thermal lysis 15 minutes at 100° C. + Base treatment 15 minutes at 60° C.",38017 RLU
same,RLU,"[2]; Table 5, Negative Control",592 RLU
